ChEMBL document CHEMBL1201862, “PubChem BioAssay data set” (2004)
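All cell lines were grown in 96-well plates and treated with compound for 48 hours. Here, GI50 denotes the concentration required for 50% inhibition of growth.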 Activity calls are given as the source filed them. No stated cut-off is given here; in the data, active = GI50 up to about 1.1 µM and inactive = higher.

What was measured:
Test in all cases: DTP human tumour cell line panel, 48 h
[1] = test system: DLD-1
[2] = test system: DMS-273
[3] = test system: HOP-18
[4] = test system: KM-20L2
[5] = test system: LXFL 529
[6] = test system: M19-MEL
[7] = test system: RXF 631
[8] = test system: SNB-78
[9] = test system: XF498

Measured: GI50

C[C@]12CCC3[C@@H](CC[C@@H]4c5nonc5CC[C@]34C)C1CC[C@@H]2O (some centres undefined)
inactive: [1] 26.3 µM | [2] 23.9 µM | [3] 36.4 µM | [4] 43.7 µM | [5] 37 µM | [6] 48 µM | [7] 33.1 µM | [8] 38.6 µM | [9] 20.3 µM
